# Values quoted from earlier work in article PMC2217462 (The Journal of General Physiology, 2004).
# Legend:
# [1] = test system: Kv2.1 channel, mutations at F274; conditions: mutations at F274 of Kv2.1; ref Li-Smerin and Swartz, 2000
# [2] = test system: Kv2.1 channel, basic substitutions at E277; conditions: substitution of basic residues at E277 of Kv2.1; ref Li-Smerin and Swartz, 2000
substance,measurement,setting,value
hanatoxin,fold increase in hanatoxin Kd,[1],≤ 500 fold
same,fold increase in hanatoxin Kd,[2],≤ 125 fold
